Here are results for two compounds from patent publication US10905691B2, “Use of triazolo(4,5-d)pyrimidine derivatives for prevention and treatment of bacterial infection” (Universite de Liege, priority 2016, dated 2021).

The subject of test [1] is Escherichia coli (ATCC 8739). The test can be described thus: MIC determination with or without C12(ω7)Kβ12 (OAK). Format: cell-based. As to conditions: for MIC: Escherichia coli, ATCC8739, in presence of 5 μg/ml OAK; for inhibition of Escherichia coli growth: taken alone at a concentration of 10 μg/ml.
Text: Determination of Minimal Inhibitory Concentration (MIC) and Minimal Bactericidal Concentration (MBC) of Triafluocyl (purchased from Cayman Chemical, Item No. 15425) in presence of C12(ω7)Kβ12 (purchased from biomers.net, Germany) against Escherichia coli (ATCC 8739). The C12(ω7)Kβ12 was synthesized by solid-phase method as described by I. Radzishevsky in Antimicrobial Agents and Chemotherapy, May 2007 (1753-1759) (https://aac.asm.org/content/51/5/1753).
(§1) A single colony of Escherichia coli grown on a Luria-Bertani (LB) agar plate is resuspended and cultured in LB medium overnight (O/N) in aerobic conditions (37° C. with 220 rpm shaking in the New Brunswick Innova 4330 Shaker incubator). An aliquot of 100 μl such overnight Escherichia coli culture is diluted 1:50 in 5 ml Mueller-Hintom broth (MHB) and is incubated in aerobic conditions during 1 hour 30 minutes (OD=0.08-0.1) to reach the exponential phase of their growth curve. An inoculum of the exponentially growing Escherichia coli, corresponding to around 1×10^6 c.f.u./ml is then incubated in presence or absence of different concentrations of Triafluocyl in 2% DMSO with or without OAK for 24 hr in aerobic conditions (37° C. with 220 rpm shaking in the New Brunswick Innova 4330 Shaker incubator). Growth of Escherichia coli in each condition depicted in FIG. 13A is evaluated by reading the Optical Density of each culture at 600 nm (OD600) in a spectrophotometer (Victor-3, Perkin Elmer).
Determination of Minimal Inhibitory Concentration (MIC) and Minimal Bactericidal Concentration (MBC) of Fluometacyl (prepared according to WO 99/05143) in presence of C12(ω7)Kβ12 (purchased from biomers.net, Germany) against Escherichia coli (ATCC 8739). The C12(ω7)Kβ12 was synthesized by solid-phase method as described by I. Radzishevsky in Antimicrobial Agents and Chemotherapy, May 2007 (1753-1759) (https://aac.asm.org/content/51/5/1753).
as §1, with “An inoculum of the exponentially growing Escherichia coli, corresponding to around 1×10^6 c.f.u./ml is then incubated in presence or absence of different concentrations of Triafluocyl in 2% DMSO with or without OAK for 24 hr in aerobic conditions (37° C. with 220 rpm shaking in the New Brunswick Innova 4330 Shaker incubator).” left out, “14A” for “13A”

Test [2] has as its system S. agalactiae (ATCC 12386). The test can be described thus: MBC and MDK99.9 determination (CFU counting). It counts as cell-based, Streptococcus agalactiae. The protocol:
(§2) Further experiments were conducted using S. agalactiae (ATCC 12386), as clinically relevant Gram-positive bacterial strains in order to determine the Minimal Inhibitory Concentration (MIC) which is the minimal concentration required to prevent bacterial growth; the Minimal Bactericidal Concentration (MBC) which determines the lowest concentration at which an antimicrobial agent kill a particular microorganism and a Minimum Duration for killing 99.9% bacteria (MDK99.9) which is a tolerance metric according to the EUCAST.
MBC and MDK99.9 determination: A single colony selected from S. agalactiae (ATCC 12386) is resuspended and cultured in the appropriate medium (TSB, or BHI) overnight (O/N) in aerobic conditions (37° C. with 220 rpm shaking), next day a 1:100 inoculum in the appropriate medium was incubated in aerobic conditions for 2 h. The culture is then challenged with triafluocyl at MIC concentration or higher concentrations. Bacterial growth was measured after different time intervals by counting the colony-forming units after plating appropriate culture dilutions on BHI agar plates. […] And the real time needed is defined as the MDK99.9. MBC for Triafluocyl against S. agalactiae (ATCC 12386) was 40 μg/ml. MDK99.9 for Triafluocyl against S. agalactiae (ATCC 12386) was 1 hour.

The next test concerns S. aureus ATCC 6538. The test can be described thus: MIC determination (EUCAST, Mueller-Hinton broth). Format: cell-based. As to conditions: Staphylococcus aureus, ATCC6538. The method, then: as §2, with “using different strains of” for “using”, “aureus,” for “agalactiae (ATCC 12386),”, “strains: ATCC 25904, ATCC 6538, methilcillin-resistant S. aureus (MRSA) ATCC BAA-1556, Glycopeptide intermediate-resistant (GISA) S. aureus Mu-50 (ATCC 700695)” for “strains”
MIC determination: A single colony selected from the different strains of S. aureus is resuspended and cultured in the appropriate medium overnight (O/N) in aerobic conditions (37° C. with 220 rpm shaking), next day a 1:100 inoculum in Mueller-Hinton broth (MHB) was incubated in aerobic conditions for 3 hr (OD=0.08-0.1) and an inoculum of 1:300 dilution, corresponding to 3×10^5 CFU/ml, was incubated in presence or absence of different concentrations of Triafluocyl in 1% DMSO. After O/N growth the OD of each culture was measured at 600 nm in a spectrophotometer (OD600). […]

Values after ≈ are worked out from the molar mass of the structure shown.

A word on the MIC: it is the least concentration at which growth counts as inhibited. Take `CCCSc1nc(N[C@@H]2C[C@H]2c2ccc(F)c(F)c2)c2nnn([C@@H]3C[C@H](O)[C@@H](O)[C@H]3O)c2n1` [Fluometacyl, (1S,2R,3S,4R)-4-[7-[[(1R,2S)-2-(3,4-Difluorophenyl)cyclopropyl]amino]-5-(propylthio)-3H-1,2,3-triazolo[4,5-d]pyrimidin-3-yl]-1,2,3-cyclopentanetriol]: in test [1], the MIC was 5 µg/mL and the “inhibition of Escherichia coli growth” value is on record as “unable to inhibit E. coli growth”.

For orientation: MBC means the smallest concentration meeting the test's criterion for killing. A lower MBC goes with greater bactericidal potency. In the case of `CCCSc1nc(N[C@@H]2C[C@H]2c2ccc(F)c(F)c2)c2nnn([C@@H]3C[C@H](OCCO)[C@@H](O)[C@H]3O)c2n1` [Triafluocyl, (1S,2S,3R,5S)-3-[7-[(1R,2S)-2-(3,4-difluorophenyl)cyclopropylamino]-5-(propylthio)-3H-[1,2,3]-triazolo[4,5-d]pyrimidin-3-yl]-5-(2-hydroxyethoxy)-1,2-cyclopentanediol], the “MDK 99.9 Time (h) needed to kill 99.9% of the started inoculum” value in test [2] worked out at 1 h. Further, the MBC in test [2] (Streptococcus agalactiae, ATCC12386, cut-off 99.9% reduction in CFU) was 40 µg/mL (≈ 76.5 µM). It took 20 µg/mL (≈ 38.3 µM) to inhibit growth against S. aureus ATCC 6538 (MIC). Further, in test [1], the MIC was 5 µg/mL and the “inhibition of Escherichia coli growth” value is reported as “unable to inhibit Escherichia coli growth”.
